Assay results from paper PMC5062470, “The mGluR2 positive allosteric modulator, SAR218645, improves memory and attention deficits in translational models of cognitive symptoms associated with schizophrenia” (Scientific Reports, 2016).

Legend:
OF1 mice [1] = experiment: Pentylenetetrazol (PTZ) seizure threshold test; format: in vivo; settings: dose-range 10–30, po
Description: The seizure threshold was determined by the infusion of 8 mg/mL of PTZ at a rate of 0.7 mL/min via a flexible plastic catheter into the tail vein of freely moving OF1 mice (22–24 g) using an infusion pump. The convulsant dose for each endpoint was calculated in mg/kg PTZ. SAR218645 (10 and 30 mg/kg, po) and diazepam (3 mg/kg, ip) were administered 60 or 30 min prior to the beginning of PTZ infusion, respectively. One-way ANOVA was used to assess overall effect of treatment, and Dunnett’s post-hoc was used to compare differences between treatment groups. Ten to fifteen animals per group were used.

human mGluR7 = molecular target: T1, human mGluR7 (Homo sapiens, UniProt Q14831); experiment: Multispan Allosteric Profiling panel, Ca2+ (Gqi5); format: cell-based
T1 construct: host or cells: HEK293 co-expressing Gqi5

human mGluR2 [2] = molecular target: T2, human mGluR2 (Homo sapiens, UniProt Q14416); experiment: Ca2+ mobilization assay, HEK293 cells expressing human mGluR2/Gα16; format: cell-based; set-up: expressed in transfected cells; host or cells: HEK293 Flp-in-T-REx (inducible), co-expressing Gα16
OF1 mice [3] = experiment: 6-Hz electroshock-induced seizures; format: in vivo; settings: dose-range 10–30, ip
Description: SAR218645 (10 and 30 mg/kg, po) and the reference anticonvulsant agent, levetiracetam (20 mg/kg), were administered ip. to OF1 mice (12–14 g) 30 min prior to test, respectively. An electrical stimulus (6 Hz, 0.2 ms rectangular pulse, 3 s duration, 32 mA) was applied to both corneas. Animals were closely observed and rated for seizure behavior according to a modified Racine scale. Kruskal-Wallis multiple comparisons test was used to assess potential differences between treatment groups.

NMDA Nr1neo−/− mice = experiment: Y-maze test; format: in vivo
Description: The apparatus consisted of 3 arms in gray PVC in the shape of a Y. Arms were 28 cm long, 6 cm wide with walls 15 cm high. Movement was tracked manually using in-house software by an experimenter located in an adjacent room via a camera mounted directly above the maze. The animal was placed in an arm facing the center (Arm A) for 5 min. A correct alternation occurred when the animal moved to the other 2 arms without retracing its steps (i.e. Arm A to B to C). Movements such as ABA were incorrect. Based on the movement over the entire session, the percentage of correct alternations was calculated [i.e., (Total number of alternations × 100)/(Total number of arm entries-2)]. SAR218645 was administered po at 0.1 mg/kg 60 min prior to testing to either wild-type or NMDA Nr1^neo−/− mice. No dose-response effect was investigated due to the limited number of transgenic animals available. Statistics performed on total arm entries and percentage alternation consisted of using a two-way ANOVA, followed by a post-hoc Winer test for individual comparisons. Student’s t-test was used to compare the performance of each group with the chance level. Ten to eleven animals per group were used.

OF1 mice [4] = experiment: Maximal electroshock seizure (MES) test; format: in vivo
Description: SAR218645 (30 mg/kg, po) and the reference anticonvulsant agent, diazepam (10 mg/kg), were administered ip to OF1 mice (12–14 g) 30 min prior to test, respectively. An electrical stimulus (60 Hz, 0.8 ms rectangular pulse, 0.4 s duration, 50 mA) was applied to both corneas. The occurrence of tonic extension of the hindlimbs was noted.

human mGluR8 = molecular target: T3, human mGluR8 (Homo sapiens, UniProt O00222); experiment: Multispan Allosteric Profiling panel, Ca2+ (Gqi5); format: cell-based
T3 construct: host or cells: HEK293 co-expressing Gqi5

human mGluR3 = molecular target: T4, human mGluR3 (Homo sapiens, UniProt Q14832); experiment: Multispan Allosteric Profiling panel, Ca2+ (Gqi5); format: cell-based
T4 construct: host or cells: HEK293 co-expressing Gqi5

human mGluR2 [5] = molecular target: T2, human mGluR2; experiment: Multispan Allosteric Profiling panel, Ca2+ (Gqi5), control experiment; format: cell-based; settings: increasing concentrations of SAR218645; Gqi5 cells
Swiss mice = experiment: Novel object recognition task, MK-801-induced deficit; format: in vivo
From the text: The test apparatus was based on that described by Ennaceur and Delacour[37] in rats and adapted for use in mice[38]. The apparatus consisted of a uniformly lit (20 lux) PVC enclosure (52 L × 52 W × 40 H cm) with a video camera positioned 160 cm above the bench. The objects to be discriminated were a metal triangle (3.3 cm height, 5.5 cm wide) and a plastic piece of construction game (3 cm height and 3 cm wide). The observer was located in an adjacent room fitted with a video monitoring system. The experiment consisted of 3 sessions. During the first session, male Swiss mice (25–30 g) were allowed to become familiar with the experimental environment for 5 min (S1). Time spent active (animal moving around with or without sniffing and exploration) was measured. […] Times spent exploring the familiar and novel objects were recorded. […] Data (time exploring each of the two objects, in seconds) were analyzed with a two-way ANOVA, with the treatment and the object as the between factors, followed by a Winer analysis for comparing the time spent exploring the familiar versus the novel object for each treatment. […]

T2 sequence (Q14416 19-872): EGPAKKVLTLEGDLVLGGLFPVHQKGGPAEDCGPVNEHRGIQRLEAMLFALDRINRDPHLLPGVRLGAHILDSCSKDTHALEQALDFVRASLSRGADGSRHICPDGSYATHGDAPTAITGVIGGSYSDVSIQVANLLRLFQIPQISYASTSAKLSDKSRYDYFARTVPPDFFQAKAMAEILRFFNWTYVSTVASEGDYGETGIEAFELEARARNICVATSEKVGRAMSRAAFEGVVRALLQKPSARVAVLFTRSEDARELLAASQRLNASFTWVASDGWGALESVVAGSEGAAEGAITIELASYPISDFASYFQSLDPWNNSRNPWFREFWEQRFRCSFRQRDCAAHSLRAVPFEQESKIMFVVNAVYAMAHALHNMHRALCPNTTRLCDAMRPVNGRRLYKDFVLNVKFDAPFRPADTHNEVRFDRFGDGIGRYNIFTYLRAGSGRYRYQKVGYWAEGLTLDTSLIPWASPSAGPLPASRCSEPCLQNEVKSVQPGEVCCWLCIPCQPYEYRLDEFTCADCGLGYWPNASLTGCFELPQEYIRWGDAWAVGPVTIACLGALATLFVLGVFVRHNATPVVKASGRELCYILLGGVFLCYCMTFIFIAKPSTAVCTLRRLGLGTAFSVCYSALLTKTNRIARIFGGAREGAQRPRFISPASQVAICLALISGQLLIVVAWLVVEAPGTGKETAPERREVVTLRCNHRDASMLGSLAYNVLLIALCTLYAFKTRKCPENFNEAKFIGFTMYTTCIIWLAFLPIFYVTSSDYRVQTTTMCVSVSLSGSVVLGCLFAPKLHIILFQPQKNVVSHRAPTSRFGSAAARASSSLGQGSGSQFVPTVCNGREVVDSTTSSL
T1 sequence (Q14831 35-915): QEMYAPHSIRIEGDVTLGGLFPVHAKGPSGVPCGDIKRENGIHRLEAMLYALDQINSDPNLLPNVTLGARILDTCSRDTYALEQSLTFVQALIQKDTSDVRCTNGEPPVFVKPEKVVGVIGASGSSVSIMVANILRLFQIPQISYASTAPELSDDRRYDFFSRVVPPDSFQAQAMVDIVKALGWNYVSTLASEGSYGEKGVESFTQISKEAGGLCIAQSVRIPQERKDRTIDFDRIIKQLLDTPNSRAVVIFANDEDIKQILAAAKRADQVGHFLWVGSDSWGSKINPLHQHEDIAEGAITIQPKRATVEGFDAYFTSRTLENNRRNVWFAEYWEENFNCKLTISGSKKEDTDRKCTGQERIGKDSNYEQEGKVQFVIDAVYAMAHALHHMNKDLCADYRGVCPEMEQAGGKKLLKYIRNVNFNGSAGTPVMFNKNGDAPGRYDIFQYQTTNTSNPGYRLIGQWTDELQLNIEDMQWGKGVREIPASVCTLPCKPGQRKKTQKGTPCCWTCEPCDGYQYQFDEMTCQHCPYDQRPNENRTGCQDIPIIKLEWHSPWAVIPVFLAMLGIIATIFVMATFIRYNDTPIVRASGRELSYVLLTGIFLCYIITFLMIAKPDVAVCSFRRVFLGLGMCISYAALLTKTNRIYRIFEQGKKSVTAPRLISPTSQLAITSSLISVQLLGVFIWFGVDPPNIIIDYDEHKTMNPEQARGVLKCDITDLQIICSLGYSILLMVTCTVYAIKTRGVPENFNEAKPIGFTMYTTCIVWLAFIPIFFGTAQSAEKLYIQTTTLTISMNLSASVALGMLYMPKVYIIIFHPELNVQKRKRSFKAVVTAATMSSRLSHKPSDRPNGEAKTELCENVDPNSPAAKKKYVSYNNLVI
T3 sequence (O00222 34-908): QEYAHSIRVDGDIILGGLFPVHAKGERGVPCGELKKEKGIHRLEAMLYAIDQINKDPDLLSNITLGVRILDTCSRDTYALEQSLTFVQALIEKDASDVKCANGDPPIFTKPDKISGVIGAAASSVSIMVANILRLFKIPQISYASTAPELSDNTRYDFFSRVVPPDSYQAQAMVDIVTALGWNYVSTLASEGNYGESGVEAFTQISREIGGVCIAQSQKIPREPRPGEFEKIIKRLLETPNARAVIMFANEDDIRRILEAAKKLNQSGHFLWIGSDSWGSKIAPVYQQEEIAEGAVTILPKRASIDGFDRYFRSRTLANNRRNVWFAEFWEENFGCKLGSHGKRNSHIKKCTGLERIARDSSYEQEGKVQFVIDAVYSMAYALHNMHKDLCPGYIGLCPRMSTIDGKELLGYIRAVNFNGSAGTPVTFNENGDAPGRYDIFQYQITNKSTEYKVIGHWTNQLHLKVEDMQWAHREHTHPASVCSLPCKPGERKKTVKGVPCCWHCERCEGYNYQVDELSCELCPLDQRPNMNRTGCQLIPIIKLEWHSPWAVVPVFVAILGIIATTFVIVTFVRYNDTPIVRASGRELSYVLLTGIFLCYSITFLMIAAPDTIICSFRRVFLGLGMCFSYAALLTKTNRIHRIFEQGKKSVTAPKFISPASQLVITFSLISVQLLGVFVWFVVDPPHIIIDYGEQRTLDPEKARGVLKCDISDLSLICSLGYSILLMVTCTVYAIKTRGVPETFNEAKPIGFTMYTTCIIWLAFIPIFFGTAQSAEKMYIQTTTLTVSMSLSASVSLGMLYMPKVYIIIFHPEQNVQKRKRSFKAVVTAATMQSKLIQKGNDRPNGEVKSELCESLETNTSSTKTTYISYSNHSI
T4 sequence (Q14832 23-879): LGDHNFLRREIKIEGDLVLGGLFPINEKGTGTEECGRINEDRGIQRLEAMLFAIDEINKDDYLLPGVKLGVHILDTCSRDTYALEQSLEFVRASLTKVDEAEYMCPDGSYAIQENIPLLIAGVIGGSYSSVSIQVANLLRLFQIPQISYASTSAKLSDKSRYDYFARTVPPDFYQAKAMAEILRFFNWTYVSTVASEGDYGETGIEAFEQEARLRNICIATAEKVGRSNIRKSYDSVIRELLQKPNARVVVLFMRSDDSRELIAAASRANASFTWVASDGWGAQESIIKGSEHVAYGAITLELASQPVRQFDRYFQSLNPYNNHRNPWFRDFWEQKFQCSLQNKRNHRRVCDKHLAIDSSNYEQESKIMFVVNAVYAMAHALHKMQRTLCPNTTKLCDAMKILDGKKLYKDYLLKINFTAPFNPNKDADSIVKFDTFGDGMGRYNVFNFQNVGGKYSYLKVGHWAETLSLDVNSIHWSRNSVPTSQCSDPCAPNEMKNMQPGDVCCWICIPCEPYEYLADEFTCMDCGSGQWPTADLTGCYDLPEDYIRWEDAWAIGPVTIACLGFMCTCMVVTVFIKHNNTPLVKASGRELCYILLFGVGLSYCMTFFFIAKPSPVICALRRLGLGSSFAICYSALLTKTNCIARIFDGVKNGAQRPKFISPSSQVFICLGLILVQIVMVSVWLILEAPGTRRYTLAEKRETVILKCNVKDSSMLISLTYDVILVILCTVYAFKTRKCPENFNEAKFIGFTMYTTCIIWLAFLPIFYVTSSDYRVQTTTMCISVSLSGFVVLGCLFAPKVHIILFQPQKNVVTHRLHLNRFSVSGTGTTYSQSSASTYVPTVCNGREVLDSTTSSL

## CC1(C)CCc2cc(OC[C@@H]3Cn4ccc(=O)nc4O3)ccc21 [SAR218645, (S)-2-(1,1-dimethyl-indan-5-yloxymethyl)-2,3-dihydro-oxazolo[3,2-a]pyrimidin-7-one]
OF1 mice [1]
  Minimal active dose: >30 mg/kg
Human mGluR7; 10 μM SAR218645
  effect on glutamate-induced activation: no effect
Human mGluR7; SAR218645 alone
  calcium response to compound alone: did not elicit a calcium response
Human mGluR2 [2]
  maximal potentiation of the glutamate response: approximately 10 fold
OF1 mice [3]
  Minimal active dose: >30 mg/kg
NMDA Nr1neo−/− mice; 0.1 mg/kg po, P < 0.05
  spontaneous alternations versus saline-treated transgenic animals: significantly more spontaneous alternations
NMDA Nr1neo−/− mice; 0.1, po
  Minimal active dose: 0.1 mg/kg
OF1 mice [4]; 30 mg/kg ip
  Tonic seizures: 100%
OF1 mice [4]; 30, ip, OF1 mice
  Minimal active dose: >30 mg/kg
Human mGluR8; 10 μM SAR218645
  effect on glutamate-induced activation: no effect
Human mGluR8; SAR218645 alone
  calcium response to compound alone: did not elicit a calcium response
Human mGluR3; 10 μM SAR218645
  effect on glutamate-induced increases in intracellular calcium: no effect
Human mGluR3; SAR218645 alone
  calcium response to compound alone: did not elicit a calcium response
Human mGluR2 [5]
  effect on glutamate response: leftward shift
Swiss mice; 0.01, 0.03 and 0.1 mg/kg po, coadministered with MK-801 (0.0125 mg/kg, ip)
  effect on preferential investigation of the novel object: significantly restored
Swiss mice; dose-range 0.01–1, po, Swiss mice
  Minimal active dose: 0.01 mg/kg
